# Assay results published in patent US12077503B2, “Substituted cyclic amides and their use as herbicides” (FMC CORPORATION, priority 2015, dated 2024).
# Tests used:
# Assay type in all cases: in vivo
# Kochia (Kochia scoparia) [1] = experiment: Test A postemergence; conditions: Bassia scoparia, post-emergence, 240 h
# Summary of the method: (§1)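 Each rating is a visual injury score from 0 to 100 given about 10 d after treatment, judged against untreated controls kept alongside in the greenhouse. In loam soil–sand blend, seeds got a preemergence directed soil spray, while postemergence plants were 2 to 10 cm tall at spraying.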
# [2] = tested on: ragweed (common ragweed, Ambrosia elatior); experiment: Test A postemergence; conditions: Ambrosia artemisiifolia, post-emergence, 240 h
# Summary of the method: as §1
# [3] = tested on: Galium (catchweed bedstraw, Galium aparine); experiment: Test A postemergence; conditions: Galium, post-emergence, 240 h
# Summary of the method: as §1
# [4] = tested on: pigweed (Amaranthus retroflexus); experiment: Test A postemergence; conditions: Amaranthus retroflexus, post-emergence, 240 h
# Summary of the method: as §1
# corn (Zea mays) = experiment: Test A postemergence; conditions: Zea mays, post-emergence, 240 h
# Summary of the method: as §1
# [5] = tested on: ryegrass, Italian (Italian ryegrass, Lolium multiflorum); experiment: Test A postemergence; conditions: Lolium multiflorum, post-emergence, 240 h
# Summary of the method: as §1
# [6] = tested on: barnyardgrass (Echinochloa crus-galli); experiment: Test A postemergence; conditions: Echinochloa crus-galli, post-emergence, 240 h
# Summary of the method: as §1
# [7] = tested on: wheat (Triticum aestivum); experiment: Test A postemergence; conditions: Triticum aestivum, post-emergence, 240 h
# Summary of the method: as §1
# [8] = tested on: giant foxtail (Setaria faberii); experiment: Test A postemergence; conditions: Setaria faberi, post-emergence, 240 h
# Summary of the method: as §1
# [9] = tested on: blackgrass (Alopecurus myosuroides); experiment: Test A postemergence; conditions: Alopecurus myosuroides, post-emergence, 240 h
# Summary of the method: as §1
# Kochia (Kochia scoparia) [10] = experiment: Test A preemergence; conditions: Bassia scoparia, pre-emergence, 240 h, 0 to 100 scale where 0 is no effect and 100 is complete control, read-out: Kochia plant response rating
# Summary of the method: as §1
# [11] = tested on: ragweed (common ragweed, Ambrosia elatior); experiment: Test A preemergence; conditions: Ambrosia artemisiifolia, pre-emergence, 240 h, 0 to 100 scale where 0 is no effect and 100 is complete control, read-out: Ragweed plant response rating
# Summary of the method: as §1
# [12] = tested on: pigweed (Amaranthus retroflexus); experiment: Test A preemergence; conditions: Amaranthus retroflexus, pre-emergence, 240 h, 0 to 100 scale where 0 is no effect and 100 is complete control, read-out: Pigweed plant response rating
# [13] = tested on: ryegrass, Italian (Italian ryegrass, Lolium multiflorum); experiment: Test A preemergence; conditions: Lolium multiflorum, pre-emergence, 240 h, 0 to 100 scale where 0 is no effect and 100 is complete control, read-out: Ryegrass, Italian plant response rating
# Summary of the method: as §1
# [14] = tested on: barnyardgrass (Echinochloa crus-galli); experiment: Test A preemergence; conditions: Echinochloa crus-galli, pre-emergence, 240 h, 0 to 100 scale where 0 is no effect and 100 is complete control, read-out: Barnyardgrass plant response rating
# Summary of the method: as §1
# [15] = tested on: giant foxtail (Setaria faberii); experiment: Test A preemergence; conditions: Setaria faberi, pre-emergence, 240 h, 0 to 100 scale where 0 is no effect and 100 is complete control, read-out: Foxtail, Giant plant response rating
# Summary of the method: as §1
# [16] = tested on: sedge, umbrella (small-flower umbrella sedge, Cyperus difformis); experiment: Test B flooded paddy test; conditions: Cyperus difformis, 250 g ai/ha, Flood; 0 to 100 scale where 0 is no effect and 100 is complete control; read-out: Sedge, Umbrella plant response rating
# Summary of the method: (§2)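 Rating scale 0–100 (visual, vs untreated controls) after a 13–15 d greenhouse period; application to the flood layer, 3 cm above soil and maintained; plants at 2-leaf stage when treated.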
# rice (Oryra sativa) = experiment: Test B flooded paddy test; conditions: Oryza sativa, 250 g ai/ha, Flood; 0 to 100 scale where 0 is no effect and 100 is complete control; read-out: Rice plant response rating
# Summary of the method: as §2
# [17] = tested on: barnyardgrass (Echinochloa crus-galli); experiment: Test B flooded paddy test; conditions: Echinochloa crus-galli, 250 g ai/ha, Flood; 0 to 100 scale where 0 is no effect and 100 is complete control; read-out: Barnyardgrass plant response rating
# Summary of the method: as §2
# [18] = tested on: ducksalad (Heteranthera limosa); experiment: Test B flooded paddy test; conditions: Heteranthera limosa, 250 g ai/ha, Flood; 0 to 100 scale where 0 is no effect and 100 is complete control; read-out: Ducksalad plant response rating
# Summary of the method: as §2
# [19] = 125 g ai/ha, preemergence, approx. 10 d
compound,measurement,setting,value
CN1C[C@H](c2ccc3ncccc3c2)[C@@H](C(=O)Nc2cccc(F)c2F)C1=O [Compound 1167],pest or weed control at 125 g/ha,"Kochia (Kochia scoparia) [1]; 125 g ai/ha, postemergence, visual injury vs untreated controls after approx. 10 d, 0 = no effect, 100 = complete control, read-out: Kochia plant response rating (0 to 100 scale)",0%
same,pest or weed control at 31 g/ha,"Kochia (Kochia scoparia) [1]; Postemergence, 31 g ai/ha, visual injury after approx. 10 d, 0 to 100 scale, 0 no effect, 100 complete control, read-out: Plant response rating, Kochia",0%
same,pest or weed control at 125 g/ha,"[2]; 125 g ai/ha, postemergence, visual injury vs untreated controls after approx. 10 d, 0 = no effect, 100 = complete control, read-out: Ragweed plant response rating (0 to 100 scale)",0%
same,pest or weed control at 31 g/ha,"[2]; Postemergence, 31 g ai/ha, visual injury after approx. 10 d, 0 to 100 scale, 0 no effect, 100 complete control, read-out: Plant response rating, Ragweed",0%
same,pest or weed control at 125 g/ha,"[3]; 125 g ai/ha, postemergence, visual injury vs untreated controls after approx. 10 d, 0 = no effect, 100 = complete control, read-out: Galium plant response rating (0 to 100 scale)",20%
same,pest or weed control at 31 g/ha,"[3]; Postemergence, 31 g ai/ha, visual injury after approx. 10 d, 0 to 100 scale, 0 no effect, 100 complete control, read-out: Plant response rating, Galium",0%
same,pest or weed control at 125 g/ha,"[4]; 125 g ai/ha, postemergence, visual injury vs untreated controls after approx. 10 d, 0 = no effect, 100 = complete control, read-out: Pigweed plant response rating (0 to 100 scale)",0%
same,pest or weed control at 31 g/ha,"[4]; Postemergence, 31 g ai/ha, visual injury after approx. 10 d, 0 to 100 scale, 0 no effect, 100 complete control, read-out: Plant response rating, Pigweed",0%
same,plant injury at 125 g/ha,"corn (Zea mays); 125 g ai/ha, postemergence, visual injury vs untreated controls after approx. 10 d, 0 = no effect, 100 = complete control, read-out: Corn plant response rating (0 to 100 scale)",0%
same,"Corn plant response rating (crop injury, 0 = no effect, 100 = complete kill) at 31 g/ha","corn (Zea mays); Postemergence, 31 g ai/ha, visual injury after approx. 10 d, 0 to 100 scale, 0 no effect, 100 complete control",0%
same,pest or weed control at 125 g/ha,"[5]; 125 g ai/ha, postemergence, visual injury vs untreated controls after approx. 10 d, 0 = no effect, 100 = complete control, read-out: Ryegrass, Italian plant response rating (0 to 100 scale)",0%
same,pest or weed control at 31 g/ha,"[5]; Postemergence, 31 g ai/ha, visual injury after approx. 10 d, 0 to 100 scale, 0 no effect, 100 complete control, read-out: Plant response rating, Ryegrass, Italian",0%
same,pest or weed control at 125 g/ha,"[6]; 125 g ai/ha, postemergence, visual injury vs untreated controls after approx. 10 d, 0 = no effect, 100 = complete control, read-out: Barnyardgrass plant response rating (0 to 100 scale)",50%
same,pest or weed control at 31 g/ha,"[6]; Postemergence, 31 g ai/ha, visual injury after approx. 10 d, 0 to 100 scale, 0 no effect, 100 complete control, read-out: Plant response rating, Barnyardgrass",0%
same,plant injury at 125 g/ha,"[7]; 125 g ai/ha, postemergence, visual injury vs untreated controls after approx. 10 d, 0 = no effect, 100 = complete control, read-out: Wheat plant response rating (0 to 100 scale)",50%
same,plant injury at 31 g/ha,"[7]; Postemergence, 31 g ai/ha, visual injury after approx. 10 d, 0 to 100 scale, 0 no effect, 100 complete control, read-out: Plant response rating, Wheat",0%
same,pest or weed control at 125 g/ha,"[8]; 125 g ai/ha, postemergence, visual injury vs untreated controls after approx. 10 d, 0 = no effect, 100 = complete control, read-out: Foxtail, Giant plant response rating (0 to 100 scale)",30%
same,pest or weed control at 31 g/ha,"[8]; Postemergence, 31 g ai/ha, visual injury after approx. 10 d, 0 to 100 scale, 0 no effect, 100 complete control, read-out: Plant response rating, Foxtail, Giant",0%
same,pest or weed control at 125 g/ha,"[9]; 125 g ai/ha, postemergence, visual injury vs untreated controls after approx. 10 d, 0 = no effect, 100 = complete control, read-out: Blackgrass plant response rating (0 to 100 scale)",0%
same,pest or weed control at 31 g/ha,"[9]; Postemergence, 31 g ai/ha, visual injury after approx. 10 d, 0 to 100 scale, 0 no effect, 100 complete control, read-out: Plant response rating, Blackgrass",0%
same,pest or weed control at 31 g/ha,"Kochia (Kochia scoparia) [10]; 31 g ai/ha, Preemergence",0%
same,pest or weed control at 125 g/ha,Kochia (Kochia scoparia) [10]; [19],0%
same,pest or weed control at 31 g/ha,"[11]; 31 g ai/ha, Preemergence",0%
same,pest or weed control at 125 g/ha,[11]; [19],0%
same,pest or weed control at 31 g/ha,"[12]; 31 g ai/ha, Preemergence",0%
same,pest or weed control at 125 g/ha,[12]; [19],0%
same,pest or weed control at 31 g/ha,"[13]; 31 g ai/ha, Preemergence",0%
same,pest or weed control at 125 g/ha,[13]; [19],0%
same,pest or weed control at 31 g/ha,"[14]; 31 g ai/ha, Preemergence",0%
same,pest or weed control at 125 g/ha,[14]; [19],0%
same,pest or weed control at 31 g/ha,"[15]; 31 g ai/ha, Preemergence",0%
same,pest or weed control at 125 g/ha,[15]; [19],50%
same,pest or weed control at 250 g/ha,[16],0%
same,pest or weed control at 250 g/ha,rice (Oryra sativa),0%
same,pest or weed control at 250 g/ha,[17],0%
same,pest or weed control at 250 g/ha,[18],0%
